From publication PMC7150870 (Toxins, 2020)
Read-outs that look alike come from different tables or passages of the source. Marks after values point to notes of the source that are not given here.

Key:
P-gp [1] = target: T1, P-gp (Homo sapiens, UniProt P08183)
P-gp [2] = target: T1, P-gp; conditions: cited from earlier work
HepG2 = format: cell-based, human
Caco-2 = format: cell-based, human
HEK293T = format: cell-based, human
RAW 264.7 = format: cell-based, mouse
epithelial cell layers = conditions: cited from earlier work
HEK293T cells = format: cell-based, human
[3] = system: HepG2, Caco-2, RAW 264.7, and HEK 293T cells; conditions: read-out: IC50 range in studied cells
HEK 293T cells [4] = format: cell-based, human
various mammalian cells = conditions: cited from earlier work
TNF-α = conditions: cited from earlier work
human fibroblasts = conditions: 50 µM for 24 h; cited from earlier work
[5] = 5.2–15.5 mM; cited from earlier work
HEK 293T cells [6] = system: HEK 293T cells
hepatocyte cells = conditions: cited from earlier work
[7] = human (Caco-2), mouse (RAW 264.7)

T1 sequence (P08183 whole entry, looked up): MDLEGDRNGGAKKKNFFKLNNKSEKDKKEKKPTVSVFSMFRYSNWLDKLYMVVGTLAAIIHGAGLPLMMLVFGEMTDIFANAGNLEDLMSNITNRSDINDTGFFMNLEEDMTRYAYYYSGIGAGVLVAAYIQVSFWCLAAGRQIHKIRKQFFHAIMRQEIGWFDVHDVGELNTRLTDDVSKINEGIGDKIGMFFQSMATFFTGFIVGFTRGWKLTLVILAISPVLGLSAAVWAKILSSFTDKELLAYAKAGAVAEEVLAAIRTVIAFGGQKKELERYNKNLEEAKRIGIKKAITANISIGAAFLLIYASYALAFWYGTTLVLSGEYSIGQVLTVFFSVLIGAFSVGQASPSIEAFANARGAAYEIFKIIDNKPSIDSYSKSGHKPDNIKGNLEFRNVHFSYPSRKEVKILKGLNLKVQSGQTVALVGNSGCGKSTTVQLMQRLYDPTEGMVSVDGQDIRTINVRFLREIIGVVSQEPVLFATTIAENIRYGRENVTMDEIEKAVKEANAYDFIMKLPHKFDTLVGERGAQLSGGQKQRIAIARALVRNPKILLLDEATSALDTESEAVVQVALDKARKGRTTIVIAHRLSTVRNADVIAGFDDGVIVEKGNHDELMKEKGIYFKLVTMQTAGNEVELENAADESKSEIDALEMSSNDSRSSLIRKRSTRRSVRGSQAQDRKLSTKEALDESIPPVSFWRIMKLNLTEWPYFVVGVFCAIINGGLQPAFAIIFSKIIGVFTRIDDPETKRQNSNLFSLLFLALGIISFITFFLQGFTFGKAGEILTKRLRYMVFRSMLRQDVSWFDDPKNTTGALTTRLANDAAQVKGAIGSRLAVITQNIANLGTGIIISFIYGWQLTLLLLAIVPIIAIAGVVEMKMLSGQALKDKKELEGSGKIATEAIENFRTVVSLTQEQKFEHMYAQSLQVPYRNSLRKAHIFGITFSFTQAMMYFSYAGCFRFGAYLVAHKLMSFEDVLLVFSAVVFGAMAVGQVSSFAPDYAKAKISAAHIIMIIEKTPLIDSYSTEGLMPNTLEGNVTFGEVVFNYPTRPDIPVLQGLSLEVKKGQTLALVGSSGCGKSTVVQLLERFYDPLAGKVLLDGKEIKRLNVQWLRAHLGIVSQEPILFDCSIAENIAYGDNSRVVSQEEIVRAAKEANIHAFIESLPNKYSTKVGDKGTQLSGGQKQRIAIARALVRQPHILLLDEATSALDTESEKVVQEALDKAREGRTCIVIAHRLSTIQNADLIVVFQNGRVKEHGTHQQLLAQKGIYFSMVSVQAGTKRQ

CC(=O)OC[C@]12C[C@H](OC(=O)CC(C)C)C(C)=C[C@H]1O[C@@H]1[C@H](O)[C@@H](OC(C)=O)[C@@]2(C)[C@]12CO2 [T-2, T-2 toxin]
P-gp activation (ATP consumption) (P-gp [1]): activated P-gp in dose-dependent manner | metabolites found by non-target U-HPLC-MS analysis (Caco-2 cells): 3´-hydroxy, 3-hydroxy-15-deacetyl | transepithelial transport, Apical Medium (Caco-2 cells): 11.63 ± 0.62^a % | transepithelial transport, Basolateral Medium (Caco-2 cells): 28.13 ± 0.48^e % | transepithelial transport, Caco-2 Cells (Caco-2 cells): 0.01 ± 0.00^a % | transepithelial transport, Raw 264.7 Cells (Caco-2 cells): 0.01 ± 0.00^a % | transepithelial transport, Total (Caco-2 cells): 39.77 ± 0.98^b % | P-gp substrate (P-gp [2]): not a substrate of P-gp | IC50 (HepG2): 11.4 ± 0.37 nM | IC50 (Caco-2): 13.4 ± 1.07 nM | IC50 (HEK293T): 3.87 ± 0.27 nM | IC50 (RAW 264.7): 3.57 ± 0.27 nM | transport through the epithelial cell layers (epithelial cell layers): ≤ 24% | IC50 (HEK293T cells; read-out: IC50 halving the HEK293T cells viability): 7 nM | IC50 [3]: 3.57 to 13.4 nM | combination index, silibinin 3.4 µM (HEK 293T cells [4]): 0.99 ± 0.02 Add | combination index, silibinin 6.8 µM (HEK 293T cells [4]): 1.46 ± 0.14 Ant | combination index, silibinin 13.6 µM (HEK 293T cells [4]): 1.82 ± 0.06 Ant | combination index, silibinin 27.3 µM (HEK 293T cells [4]): 1.41 ± 0.11 Ant | combination index, silibinin 54.5 µM (HEK 293T cells [4]): 0.91 ± 0.04 Add | combination index, silibinin 109.00 µM (HEK 293T cells [4]): 1.00 ± 0.08 Add | silibinin pretreatment concentration with the strongest antagonism (HEK 293T cells [4]): 13.6 µM | type of interaction, silibinin 3.4 µM (HEK 293T cells [4]): 0.99 ± 0.02 Add (key: Syn: Combination index (CI) < 0.9; Add: 0.9 ≤ CI ≤ 1; Ant: CI > 1) | type of interaction, silibinin 6.8 µM (HEK 293T cells [4]): 1.46 ± 0.14 Ant (key: Syn: Combination index (CI) < 0.9; Add: 0.9 ≤ CI ≤ 1; Ant: CI > 1) | type of interaction, silibinin 13.6 µM (HEK 293T cells [4]): 1.82 ± 0.06 Ant (key: Syn: Combination index (CI) < 0.9; Add: 0.9 ≤ CI ≤ 1; Ant: CI > 1) | type of interaction, silibinin 27.3 µM (HEK 293T cells [4]): 1.41 ± 0.11 Ant (key: Syn: Combination index (CI) < 0.9; Add: 0.9 ≤ CI ≤ 1; Ant: CI > 1) | type of interaction, silibinin 54.5 µM (HEK 293T cells [4]): 0.91 ± 0.04 Add (key: Syn: Combination index (CI) < 0.9; Add: 0.9 ≤ CI ≤ 1; Ant: CI > 1) | type of interaction, silibinin 109.00 µM (HEK 293T cells [4]): 1.00 ± 0.08 Add (key: Syn: Combination index (CI) < 0.9; Add: 0.9 ≤ CI ≤ 1; Ant: CI > 1) | IC50 (various mammalian cells): 3 to 500 nM

COc1cc(C2Oc3cc([C@H]4Oc5cc(O)cc(O)c5C(=O)[C@@H]4O)ccc3OC2CO)ccc1O (stereo partly shown) [Silibinin, silibinin, reference compound]
metabolites found by non-target U-HPLC-MS analysis (Caco-2 cells): sulfate derivative | transepithelial transport, Apical Medium (Caco-2 cells; [7]): 44.34 ± 1.96^cd % | transepithelial transport, Basolateral Medium (Caco-2 cells; [7]): 23.24 ± 1.79^de % | transepithelial transport, Caco-2 Cells (Caco-2 cells; [7]): 0.00 ± 0.00^a % | transepithelial transport, Raw 264.7 Cells (Caco-2 cells; [7]): 0.00 ± 0.00^a % | transepithelial transport, Total (Caco-2 cells; [7]): 67.58 ± 2.95^cd % | OTA-induced TNF-α level reduced to (TNF-α): 70% | doses completely blocking OTA-induced TNF-α (TNF-α): 1 to 26 µM | cytotoxic effect (human fibroblasts): no significant cytotoxic effect | amount of DNA in the comet tail compared to positive control [5]: reduced the amount of DNA in the comet tail | reduction of cell viability by sole silibinin treatment (HEK293T cells): 45% | decrease of cell viability compared to cells cultured with a single mycotoxin (HEK 293T cells [4]): about 30% | percentage of DNA in comet tail with respect to the negative control (HEK 293T cells [6]): did not induce genotoxic effects | effect against OTA cytotoxicity (hepatocyte cells): protective effect
